For data set [1] the following is noted: disulfide bond, water.
A further data set concerns the target T1, P-selectin (Homo sapiens, UniProt P16109).
T1 construct: P-selectin is isolated from human platelet lysates; from tissue; host or cells: human platelets (outdated platelet packs from a blood bank)
T1 sequence (P16109 42-830): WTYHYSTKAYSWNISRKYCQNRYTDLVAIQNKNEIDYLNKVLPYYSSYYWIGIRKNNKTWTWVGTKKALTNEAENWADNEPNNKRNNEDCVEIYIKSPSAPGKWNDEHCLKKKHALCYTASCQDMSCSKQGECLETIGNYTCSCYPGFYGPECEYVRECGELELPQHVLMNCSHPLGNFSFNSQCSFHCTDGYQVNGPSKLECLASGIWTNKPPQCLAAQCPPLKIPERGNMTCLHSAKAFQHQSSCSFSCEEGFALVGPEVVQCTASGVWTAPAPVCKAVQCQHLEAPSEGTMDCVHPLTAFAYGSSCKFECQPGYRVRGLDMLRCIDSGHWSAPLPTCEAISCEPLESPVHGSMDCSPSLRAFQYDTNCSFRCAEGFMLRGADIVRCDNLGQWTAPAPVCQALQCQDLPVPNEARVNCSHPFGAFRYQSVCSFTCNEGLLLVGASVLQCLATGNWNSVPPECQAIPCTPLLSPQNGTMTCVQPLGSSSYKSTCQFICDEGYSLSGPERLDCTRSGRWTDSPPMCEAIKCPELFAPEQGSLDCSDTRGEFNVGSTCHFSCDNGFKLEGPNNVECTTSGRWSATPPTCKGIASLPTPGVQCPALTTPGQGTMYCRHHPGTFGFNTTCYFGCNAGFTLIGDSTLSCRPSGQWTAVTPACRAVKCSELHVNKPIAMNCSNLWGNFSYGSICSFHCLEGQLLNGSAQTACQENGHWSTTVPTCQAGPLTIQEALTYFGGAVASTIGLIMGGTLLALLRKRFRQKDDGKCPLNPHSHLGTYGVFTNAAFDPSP
Kind of data set: Inhibition of human neutrophil adhesion to purified P-selectin immobilized on plastic wells. The settings on record: inhibiting the binding of human neutrophils to P-selectin. It counts as cell-based. In short, it runs like this:
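Isolated human neutrophils (2×10^5 per well) in HBSS with Ca2+/Mg2+ and HSA added to wells coated overnight at 4° C with platelet-derived P-selectin (5 micrograms/mL), HSA-blocked; 20 min at 22° C. Nonadherent cells removed by inverted centrifugation at 150 g; adherent cells quantified by myeloperoxidase activity.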

Like-named read-outs stand apart in the source and are kept apart here. Where a SMILES comes first, the peptide text is derived from it. Bridges are numbered along the chain shown (N, C = ends). [ ]: non-standard residue; d: D form. Ava = NCCCCC(=O)O

The IC50 is the concentration at which inhibition is half-maximal. High values mean a need for much substance, low ones inhibition by little substance.

`CC(C)[C@@H](NC(=O)[C@@H](Cc1c[nH]c2ccccc12)NC(=O)[C@H](NC(=O)[C@@H](Cc1c[nH]c2ccccc12)NC(=O)[C@H]1CSSC[C@@H](NC(=O)[C@@H](CCCCN)NC(=O)[C@H](N)CCCNC(=N)N)C(=O)N[C@H](Cc2ccccc2)C(=O)NCC(=O)N1)[C@H](C)O)C(N)=O` [(12)] (H-[dR][dK][dC][dF]G[dC][dW][dT][dW][dV]-NH2; disulfide 3-6) registered a ring closure, yield of all isomers in data set [1] (from CC(C)[C@@H](NC(=O)[C@@H](Cc1c[nH]c2ccccc12)NC(=O)[C@H](NC(=O)[C@@H](Cc1c[nH]c2ccccc12)NC(=O)[C@@H](CS)NC(=O)CNC(=O)[C@@H](Cc1ccccc1)NC(=O)[C@@H](CS)NC(=O)[C@@H](CCCCN)NC(=O)[C@H](N)CCCNC(=N)N)[C@H](C)O)C(N)=O, DMSO, 0.255 mM, 16.0 h) of 18.7%. The 50% inhibitory concentration (IC50) at P-selectin came to 48 µM.
As to `CC(C)[C@@H](NC(=O)[C@@H](Cc1c[nH]c2ccccc12)NC(=O)[C@H](NC(=O)[C@@H](Cc1c[nH]c2ccccc12)NC(=O)[C@H]1CSSC[C@@H](NC(=O)[C@@H](CCCCN)NC(=O)[C@H](N)CCCNC(=N)N)C(=O)NCC(=O)N[C@H](Cc2ccccc2)C(=O)N1)[C@H](C)O)C(N)=O` [(13)] (H-[dR][dK][dC]G[dF][dC][dW][dT][dW][dV]-NH2; disulfide 3-6), in data set [1] (from CC(C)[C@@H](NC(=O)[C@@H](Cc1c[nH]c2ccccc12)NC(=O)[C@H](NC(=O)[C@@H](Cc1c[nH]c2ccccc12)NC(=O)[C@@H](CS)NC(=O)[C@@H](Cc1ccccc1)NC(=O)CNC(=O)[C@@H](CS)NC(=O)[C@@H](CCCCN)NC(=O)[C@H](N)CCCNC(=N)N)[C@H](C)O)C(N)=O, DMSO, 0.242 mM, 16.0 h), the ring closure, yield of all isomers was 10.7%. On P-selectin, this molecule showed an IC50 of 50 µM.
Turning to `CC(C)[C@@H](NC(=O)[C@@H](Cc1c[nH]c2ccccc12)NC(=O)[C@H](NC(=O)[C@@H](Cc1c[nH]c2ccccc12)NC(=O)[C@H]1CSSC[C@@H](NC(=O)[C@@H](CCCCN)NC(=O)[C@H](N)CCCNC(=N)N)C(=O)N[C@@H](Cc2ccccc2)C(=O)NCC(=O)N1)[C@H](C)O)C(N)=O` [(18)] (H-[dR][dK][dC]FG[dC][dW][dT][dW][dV]-NH2; disulfide 3-6), the ring closure, yield of all isomers in data set [1] (from CC(C)[C@@H](NC(=O)[C@@H](Cc1c[nH]c2ccccc12)NC(=O)[C@H](NC(=O)[C@@H](Cc1c[nH]c2ccccc12)NC(=O)[C@@H](CS)NC(=O)CNC(=O)[C@H](Cc1ccccc1)NC(=O)[C@@H](CS)NC(=O)[C@@H](CCCCN)NC(=O)[C@H](N)CCCNC(=N)N)[C@H](C)O)C(N)=O, DMSO, 0.253 mM) stood at 13.7%; in data set [1] (from CC(C)[C@@H](NC(=O)[C@@H](Cc1c[nH]c2ccccc12)NC(=O)[C@H](NC(=O)[C@@H](Cc1c[nH]c2ccccc12)NC(=O)[C@@H](CS)NC(=O)CNC(=O)[C@H](Cc1ccccc1)NC(=O)[C@@H](CS)NC(=O)[C@@H](CCCCN)NC(=O)[C@H](N)CCCNC(=N)N)[C@H](C)O)C(N)=O, DMSO, 0.253 mM, 16.0 h), 13.7%. At P-selectin, the half-inhibitory concentration (IC50) was determined as 49 µM.
`CC(C)[C@@H](NC(=O)[C@@H](Cc1c[nH]c2ccccc12)NC(=O)[C@H](NC(=O)[C@@H](Cc1c[nH]c2ccccc12)NC(=O)[C@H]1CSSC[C@@H](NC(=O)[C@@H](CCCCN)NC(=O)[C@H](N)CCCNC(=N)N)C(=O)NCCCCC(=O)N1)[C@H](C)O)C(N)=O` [(21)] (H-[dR][dK][dC][Ava][dC][dW][dT][dW][dV]-NH2; disulfide 3-5): the ring closure, yield of all isomers in data set [1] (from CC(C)[C@@H](NC(=O)[C@@H](Cc1c[nH]c2ccccc12)NC(=O)[C@H](NC(=O)[C@@H](Cc1c[nH]c2ccccc12)NC(=O)[C@@H](CS)NC(=O)CCCCNC(=O)[C@@H](CS)NC(=O)[C@@H](CCCCN)NC(=O)[C@H](N)CCCNC(=N)N)[C@H](C)O)C(N)=O, DMSO, 0.241 mM, 16.0 h) is 13.2%. In addition, on P-selectin, the IC50 worked out at 23 µM.
Take `CC(C)[C@@H](NC(=O)[C@@H](Cc1c[nH]c2ccccc12)NC(=O)[C@H](NC(=O)[C@@H](Cc1c[nH]c2ccccc12)NC(=O)[C@H]1CSSC[C@@H](NC(=O)[C@@H](CCCCN)NC(=O)[C@H](N)CCCNC(=N)N)C(=O)NCC(=O)NCC(=O)N1)[C@H](C)O)C(N)=O` [(25)] (H-[dR][dK][dC]GG[dC][dW][dT][dW][dV]-NH2; disulfide 3-6): the ring closure, yield of all isomers in data set [1] (from CC(C)[C@@H](NC(=O)[C@@H](Cc1cn(C=O)c2ccccc12)NC(=O)[C@H](NC(=O)[C@@H](Cc1cn(C=O)c2ccccc12)NC(=O)[C@@H](CS)NC(=O)CNC(=O)CNC(=O)[C@@H](CS)NC(=O)[C@@H](CCCCN)NC(=O)[C@H](N)CCCNC(=N)N)[C@H](C)O)C(N)=O, DMSO, 1.4 mM, 16.0 h, 2 steps) came out at 2.4%. The same molecule showed a half-maximal inhibitory concentration (IC50) at P-selectin of 17 µM.
`CC(C)[C@H](NC(=O)[C@H](Cc1c[nH]c2ccccc12)NC(=O)[C@@H](NC(=O)[C@H](Cc1c[nH]c2ccccc12)NC(=O)[C@@H]1CSSC[C@H](NC(=O)[C@@H](N)CCCCN)C(=O)NCC(=O)NCC(=O)N1)[C@@H](C)O)C(N)=O` [(27)] (H-KCGGCWTWV-NH2; disulfide 2-5) displayed a ring closure, yield of all isomers in data set [1] (from CC(C)[C@H](NC(=O)[C@H](Cc1c[nH]c2ccccc12)NC(=O)[C@@H](NC(=O)[C@H](Cc1c[nH]c2ccccc12)NC(=O)[C@H](CS)NC(=O)CNC(=O)CNC(=O)[C@H](CS)NC(=O)[C@@H](N)CCCCN)[C@@H](C)O)C(N)=O, K3Fe(CN)6/NH4OH (half) and DMSO (half), 0.37 mM, 16.0 h) of 10.9%. On P-selectin, this molecule had an IC50 of 22 µM.
The molecule `CC(C)[C@H](NC(=O)[C@H](Cc1c[nH]c2ccccc12)NC(=O)[C@@H](NC(=O)[C@H](Cc1c[nH]c2ccccc12)NC(=O)[C@@H]1CSSC[C@H](N)C(=O)NCC(=O)NCC(=O)N1)[C@@H](C)O)C(N)=O` [(29)] (H-CGGCWTWV-NH2; disulfide 1-4) registered a ring closure, yield of all isomers in data set [1] (from CC(C)[C@H](NC(=O)[C@H](Cc1c[nH]c2ccccc12)NC(=O)[C@@H](NC(=O)[C@H](Cc1c[nH]c2ccccc12)NC(=O)[C@H](CS)NC(=O)CNC(=O)CNC(=O)[C@@H](N)CS)[C@@H](C)O)C(N)=O, DMSO, 0.285 mM, 16.0 h) of 8.5%. The IC50 on P-selectin is 325 µM.
`CC[C@H](C)[C@H](NC(=O)[C@H](CCCCN)NC(=O)[C@@H](N)CCCNC(=N)N)C(=O)NCC(=O)NCC(=O)N[C@H]1CSSC[C@@H](C(N)=O)NC(=O)[C@H](Cc2c[nH]c3ccccc23)NC(=O)[C@H]([C@@H](C)O)NC(=O)[C@H](Cc2c[nH]c3ccccc23)NC1=O` [(33)] (H-RKIGGCWTWC-NH2; disulfide 6-10) gave a ring closure, yield of all isomers in data set [1] (from CC[C@H](C)[C@H](NC(=O)[C@H](CCCCN)NC(=O)[C@@H](N)CCCNC(=N)N)C(=O)NCC(=O)NCC(=O)N[C@@H](CS)C(=O)N[C@@H](Cc1c[nH]c2ccccc12)C(=O)N[C@H](C(=O)N[C@@H](Cc1c[nH]c2ccccc12)C(=O)N[C@@H](CS)C(N)=O)[C@@H](C)O, DMSO, 0.7 mM, 25.0 °C, 16.0 h) of 5.3%. Also, the IC50 on P-selectin stood at 468 µM.
As to `CC(C)[C@@H](NC(=O)[C@@H](Cc1c[nH]c2ccccc12)NC(=O)[C@H](NC(=O)[C@@H](Cc1c[nH]c2ccccc12)NC(=O)[C@H]1CSSC[C@@H](NC(=O)[C@@H](CCCCN)NC(=O)[C@H](N)CCCNC(=N)N)C(=O)N[C@@H](C)C(=O)N[C@@H](Cc2ccccc2)C(=O)N1)[C@H](C)O)C(N)=O` [(37)] (H-[dR][dK][dC]AF[dC][dW][dT][dW][dV]-NH2; disulfide 3-6), in data set [1] (from CC(C)[C@@H](NC(=O)[C@@H](Cc1c[nH]c2ccccc12)NC(=O)[C@H](NC(=O)[C@@H](Cc1c[nH]c2ccccc12)NC(=O)[C@@H](CS)NC(=O)[C@H](Cc1ccccc1)NC(=O)[C@H](C)NC(=O)[C@@H](CS)NC(=O)[C@@H](CCCCN)NC(=O)[C@H](N)CCCNC(=N)N)[C@H](C)O)C(N)=O, air/Cu wire, ammonium acetate, 0.731 mM, 22.0 h), the ring closure, yield of all isomers amounted to 1.3%. This molecule also displayed an IC50 at P-selectin of 205 µM.
In data set [1] (from CC(C)[C@@H](NC(=O)[C@@H](Cc1c[nH]c2ccccc12)NC(=O)[C@H](NC(=O)[C@@H](Cc1c[nH]c2ccccc12)NC(=O)[C@@H](CS)NC(=O)[C@H](C)NC(=O)CNC(=O)[C@@H](CS)NC(=O)[C@@H](CCCCN)NC(=O)[C@H](N)CCCNC(=N)N)[C@H](C)O)C(N)=O, air/Cu wire, NH4OH, 3.31 mM, 20.0 h), `CC(C)[C@@H](NC(=O)[C@@H](Cc1c[nH]c2ccccc12)NC(=O)[C@H](NC(=O)[C@@H](Cc1c[nH]c2ccccc12)NC(=O)[C@H]1CSSC[C@@H](NC(=O)[C@@H](CCCCN)NC(=O)[C@H](N)CCCNC(=N)N)C(=O)NCC(=O)N[C@@H](C)C(=O)N1)[C@H](C)O)C(N)=O` [(38)] (H-[dR][dK][dC]GA[dC][dW][dT][dW][dV]-NH2; disulfide 3-6) gave a ring closure, yield of all isomers of 15.1%. This molecule also had an IC50 at P-selectin of 75 µM.

The values above are taken from patent US5753617A, “Peptide inhibitors of cellular adhesion” (Centocor, Inc., priority 1995, dated 1998).
